Experiment [1] deals with GST tagged BCl-xL ΔC25 protein (Homo sapiens, UniProt Q07817). The experiment can be described thus: Alphascreen competition binding assay, GST tagged Bcl-xL vs biotinylated Bim BH3-26 peptide. Conditions: competition with Bim BH3-26 peptide; unit inferred. An excerpt:
(§1) Measurement of competition of compounds of the invention with Bim26-mer for a Bcl-2 homologue binding site.
(§2) Alphascreen (Amplified Luminescent Proximity Homogenous Assay) is a bead based technology which measures the interaction between molecules. The assay consists of two hydrogel coated beads which, when bought into close proximity by a binding interaction, allow the transfer of singlet oxygen from a donor bead to an acceptor bead.
(§3) Upon binding and excitation with laser light at 680 nm, a photosensitizer in the donor bead converts ambient oxygen to a more excited singlet state. This singlet oxygen then diffuses across to react with a chemiluminescer in the acceptor bead. Fluorophores within the same bead are activated resulting in the emission of light at 580-620 nm.
(§4) Screening of the compounds of the invention was performed using the Alphascreen GST (glutathione s-transferase) detection kit system. Test compounds were titrated into the assay which consisted of GST tagged Bclw ΔC29 protein (0.05 nM Final concentration) and Biotinylated Bim BH3-26 peptide, Biotin-[…] (3.0 nM Final concentration). For the GST tagged BCl-xL assay, GST tagged BCl-xL ΔC25 protein (0.6 nM Final concentration) and Biotinylated Bim BH3-26 peptide, Biotin-[…] (5.0 nM final concentration) were used. To this reaction mix anti-GST coated acceptor beads and Streptavidin coated donor beads, both at 15 μg/ml Final concentration, were added and the assay mixture incubated for 4 hours at room temperature before reading. Similarly when the Bcl-2 protein was Mcl-1, GST tagged Mcl-1 protein (0.4 nM Final concentration) and Biotinylated Bak BH3 peptide, Biotin-[…]-OH (4.0 nM Final concentration) were used.
(§5) • 1) prepare a 384 well with 4.75 μL of buffer and 0.25 μL of compounds (20 mM in DMSO) per well. • 2) Mix the binding partners, in one tube add Bcl-w, BCl-xL or Mcl-1 and the acceptor beads, in the second tube add Biotinylated BH3 peptide and the donor beads. • 3) Pre-incubate the two pairs of binding partners for 30 minutes. • 4) Add 1 μL of acceptor beads:Bcl-w, BCl-xL or Mcl-1 protein mix to each well. • 5) Seal the plate and incubate at room temperature for 30 minutes. • 6) Add 10 μL of donor bead:BH3 peptide mix to each well. • 7) Seal the plate, cover with foil and incubate for 4 hours.
(§6) Assay buffer contained 50 mM Hepes pH 7.4, 10 mM DTT, 100 mM NaCl, 0.05% Tween and 0.1 mg/ml casein. Bead dilution buffer contained 50 mM Tris, pH 7.5, 0.01% Tween and 0.1 mg/ml casein. The final DMSO concentration in the assay was 0.5%. Assays were performed in 384 well white Optiplates and analyzed on the PerkinElmer Fusion alpha plate reader (Ex680, Em520-620 nM).
(§7) The GST Alphascreen detection kit and Optiplates were purchased from PerkinElmer.
In general terms: Alpha assays give light when donor and acceptor beads are brought close together.

The next experiment deals with GST tagged Mcl-1 protein (Homo sapiens, UniProt Q07820). Kind of experiment: Alphascreen competition binding assay, GST tagged Mcl-1 vs biotinylated Bak BH3 peptide. The note with it: competition with Bak BH3 peptide; unit inferred.
Text: as §1, §2, §3, §4, §5, §6, §7

For another experiment, the system named is SCLC cell line NCI-H1963. The experiment can be described thus: CellTitre-Glow luminescent cytotoxicity assay, NCI-H1963. The format is cell-based. The note with it: Homo sapiens; NCI-H1963 cells, 48 hr incubation. The method, then: (§8) • 1. SCLC cell lines NCI-H889, NCI-H1963, and NCI-H146 were purchased from American Type Culture Collection. Cells were maintained in RPMI 1640 (Invitrogen Corp., Grand Island, N.Y.) supplemented with 10% fetal bovine serum (FBS, Invitrogen), 1% sodium pyruvate, 25 mM HEPES, 4.5 g/L glucose and 1% penicillin/streptomycin (Sigma) in a humidified chamber at 37° C. containing 5% CO2. • 2. cells were grown as suspension aggregates in a T162 flask with 25 ml medium and kept at concentration of 1 million/mL. Test Compound Stocks: • 1. test compounds were prepared as 10 mM stocks in DMSO and stored at −20° C. Test Compound Serial Dilutions: • 1. prewarmed medium to 37° C. • 2. thawed compounds to room temperature. • 3. determined what will be the highest concentration to be tested. (i.e. 10 μM). • 4. prepared a 2× stock in culture medium of the first dose (i.e. 2×10 μM=20 μM) in an Eppendorf tube (i.e. 4 μl of 5 mM stock into 1000 μl=20 μM). • 5. inverted tube several times to mix. […] Columns 1-10 comprised the serial test compound treatments, column 11 was the untreated control and column 12 was the ‘no cell’ control for determining the background. • 1. in a 96 well plate was added 50 μl medium/well in columns 2 thru 11 and 100 μl was added to column 12. • 2. in column 1 was added 100 μl of 2× compound. • 3. made serial dilutions by transferring 50 μl to column 2, and so on up to column 10. After adding 50 μl to column 10 and mixing, discarded 50 μl. • 4. stored plates at 37° C. until ready to add cells. Cell Preparation • 1. Cell were washed one time in the culture medium and prepared as a suspension. • a. cell were first spun down to remove the medium and then ˜1 ml 0.25% trypsin was added and gently mixed and incubated for no more than three minutes at room temperature. • b. ˜10 ml of the medium was added and the cells were gently pipetted several times. • c. cells were then counted and spun down to the volume necessary for the total cell number needed, then resuspended in the medium to 200 cells/μl concentration (50,000 cells/well). • 2. […]

For a further experiment, the system named is SCLC cell line NCI-H889. The experiment can be described thus: CellTitre-Glow luminescent cytotoxicity assay, NCI-H889. The format is cell-based. The note with it: Homo sapiens; NCI-H889 cells, 48 hr incubation. The method, then:
as §8

The subject of a further experiment is SCLC cell line NCI-H146. Kind of experiment: CellTitre-Glow luminescent cytotoxicity assay, NCI-H146. The format is cell-based. The note with it: Homo sapiens; NCI-H146 cells, 48 hr incubation. On the procedure: as §8
Experiment [2] relates to mouse embryo fibroblasts (MEFs): wild type, Bax/Bak double knockout, Noxa-expressing, Bad-expressing. The experiment can be described thus: Cell viability assay on mouse embryo fibroblasts (propidium iodide uptake). The format is cell-based. Conditions: propidium iodide uptake after 24 hours. On the procedure: FIG. 1 graphically depicts the effect of Compound 1 (FIG. 1A) and Etoposide (FIG. 1B), at increasing concentrations, on the % viability of certain mouse embryo fibroblast (MEF) cells as assessed by propidium iodide uptake after 24 hours. Noxa and Bad were introduced by retrovirally infecting the cells with pMIG retroviruses as described by Chen et al., 2005.
The efficacy of the compounds of the present invention can also be determined in cell based killing assays using a variety of cell lines and mouse tumor models. For example, their activity on cell viability can be assessed on a panel of cultured tumorigenic and non-tumorigenic cell lines, as well as primary mouse or human cell populations, e.g. lymphocytes. For these assays, 5,000-20,000 cells are cultured at 37° C. and 10% CO2 in appropriate growth media, eg: 100 μL Dulbecco's Modified Eagle's medium supplemented with 10% foetal calf serum, asparaginase and 2-mercaptoethanol in the case of pre-B Eμ-Myc mouse tumors in 96 well plates. […] Cell viability is determined by the ability of the cells to exclude propidium iodide (10 μg/mL by immunofluorescence analysis of emission wavelengths of 660-675 nm on a flow cytometer (BD FACScan). Alternatively, a high throughput calorimetric assay such as the Cell Titre 96 could be used. Aqueous Non-Radioactive Cell Proliferation Assay (Promega) may be used. Cell death by apoptosis is confirmed by pre-incubation of the cells with 50 μM of a caspase inhibitor such as zVAD-fmk.
Neutralisation of both Bcl-xL and Mcl-1 anti-apoptotic proteins in normal cells is required before a cell undergoes apoptosis via the downstream Bax/Bak pathway [Chen et al., 2005; Willis et al., 2005]. A compound that only targets Bcl-xL should not affect normal cells, but could kill certain cancer cells if they rely more on Bcl-xL and less on Mcl-1 for survival. To mirror this, compound 1 was tested for its effect on survival of wild type (wt) mouse embryo fibroblasts (MEFs), Bax/Bak double knockout (BB DKO) MEFs, MEFs that expressed Noxa, and MEFs that expressed Bad. Noxa specifically neutralizes Mcl-1.

Broadly, the pIC50 is −log10 of the IC50, conventionally taken in molar units. High values mean a low IC50, low ones a high IC50. One may read the EC50 as the concentration that produces a half-maximal response. Lower therefore signals an effect from little substance.

Each structure is given as a SMILES string. pIC50: −log10 of the molar value.

GST tagged Mcl-1 protein, sequence (Q07820 whole entry): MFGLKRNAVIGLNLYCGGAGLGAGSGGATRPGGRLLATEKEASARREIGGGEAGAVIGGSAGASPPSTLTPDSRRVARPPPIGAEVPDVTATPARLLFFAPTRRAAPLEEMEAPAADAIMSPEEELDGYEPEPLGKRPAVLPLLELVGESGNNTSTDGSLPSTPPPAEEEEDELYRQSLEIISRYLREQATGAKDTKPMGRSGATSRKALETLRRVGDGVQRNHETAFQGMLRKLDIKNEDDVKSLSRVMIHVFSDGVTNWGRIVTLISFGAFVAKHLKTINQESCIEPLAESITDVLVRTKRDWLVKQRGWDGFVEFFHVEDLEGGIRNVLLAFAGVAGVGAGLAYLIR
GST tagged BCl-xL ΔC25 protein, sequence (Q07817 1-208 limits assumed): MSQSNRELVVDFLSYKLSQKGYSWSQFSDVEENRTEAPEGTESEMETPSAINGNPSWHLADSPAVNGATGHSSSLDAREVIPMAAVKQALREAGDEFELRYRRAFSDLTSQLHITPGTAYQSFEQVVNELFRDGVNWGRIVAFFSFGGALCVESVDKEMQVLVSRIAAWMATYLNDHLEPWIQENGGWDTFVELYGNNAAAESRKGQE

`CN(C)CC[C@H](CSc1ccccc1)Nc1ccc(S(=O)(=O)Nc2ncnc3cc(N4CCN(Cc5ccccc5-c5ccc(Cl)cc5)CC4)ccc23)cc1S(=O)(=O)C(F)(F)F` [Compound 2, N-{7-[4-(4′-Chloro-biphenyl-2-ylmethyl)-piperazin-1-yl]-quinazolin-4-yl}-4-((R)-3-dimethylamino-1-phenylsulfanylmethyl-propylamino)-3-trifluoromethanesulfonyl-benzenesulfonamide]: the pIC50 was 8.22 in experiment [1] and 4.30 on GST tagged Mcl-1 protein.
Regarding `O=[N+]([O-])c1cc(S(=O)(=O)Nc2ncnc3cc(N4CCN(Cc5ccccc5-c5ccc(Cl)cc5)CC4)ccc23)ccc1N[C@H](CCN1CCOCC1)CSc1ccccc1` [Compound 3, N-{7-[4-(4′-Chloro-biphenyl-2-ylmethyl)-piperazin-1-yl]-quinazolin-4-yl}-4-((R)-3-morpholin-4-yl-1-phenylsulfanylmethyl-propylamino)-3-nitro-benzenesulfonamide], the EC50 in the experiment on SCLC cell line NCI-H1963 was 1.4 µM; with SCLC cell line NCI-H889, 1.3 µM; in the experiment with SCLC cell line NCI-H146, 3.7 µM. Moreover, the pIC50 in experiment [1] was 7.47; at GST tagged Mcl-1 protein it was 5.22.
With `O=S(=O)(Nc1ncnc2cc(N3CCN(Cc4ccccc4-c4ccc(Cl)cc4)CC3)ccc12)c1ccc(N[C@H](CCN2CCOCC2)CSc2ccccc2)c(S(=O)(=O)C(F)(F)F)c1` [Compound 4, N-{7-[4-(4′-Chloro-biphenyl-2-ylmethyl)-piperazin-1-yl]-quinazolin-4-yl}-4-((R)-3-morpholin-4-yl-1-phenylsulfanylmethyl-propylamino)-3-trifluoromethanesulfonyl-benzenesulfonamide], the EC50 in the experiment with SCLC cell line NCI-H1963 turned out to be 0.4 µM; with SCLC cell line NCI-H889, 0.82 µM; in the experiment with SCLC cell line NCI-H146 it was 0.63 µM. The molecule further gave a pIC50 in experiment [1] of 7.80.
Regarding `CN(C)CC[C@H](CSc1ccccc1)Nc1ccc(S(=O)(=O)Nc2ncnc3cc(N4CCN(CC5=C(c6ccc(Cl)cc6)CCC(C)(C)C5)CC4)ccc23)cc1[N+](=O)[O-]` [Compound 5, N-(7-{4-[2-(4-Chloro-phenyl)-5,5-dimethyl-cyclohex-1-enylmethyl]-piperazin-1-yl}-quinazolin-4-yl)-4-((R)-3-dimethylamino-1-phenylsulfanylmethyl-propylamino)-3-nitro-benzenesulfonamide], the pIC50 in experiment [1] was 8.52; on GST tagged Mcl-1 protein it was 5.15.
In the case of `CN(C)CC[C@H](CSc1ccccc1)Nc1ccc(S(=O)(=O)Nc2ncnc3cc(N4CCN(CC5=C(c6ccc(Cl)cc6)CCC(C)(C)C5)CC4)ccc23)cc1S(=O)(=O)C(F)(F)F` [Compound 6, N-(7-{4-[2-(4-Chloro-phenyl)-5,5-dimethyl-cyclohex-1-enylmethyl]-piperazin-1-yl}-quinazolin-4-yl)-4-((R)-3-dimethylamino-1-phenylsulfanylmethyl-propylamino)-3-trifluoromethanesulfonyl-benzenesulfonamide], the values for the pIC50 (in experiment [1]; at GST tagged Mcl-1 protein) were 8.52 and 4.70, respectively.
With `CC1(C)CCC(c2ccc(Cl)cc2)=C(CN2CCN(c3ccc4c(NS(=O)(=O)c5ccc(N[C@H](CCN6CCOCC6)CSc6ccccc6)c([N+](=O)[O-])c5)ncnc4c3)CC2)C1` [Compound 7, N-(7-{4-[2-(4-Chloro-phenyl)-5,5-dimethyl-cyclohex-1-enylmethyl]-piperazin-1-yl}-quinazolin-4-yl)-4-((R)-3-morpholin-4-yl-1-phenylsulfanylmethyl-propylamino)-3-nitro-benzenesulfonamide], the results for the pIC50 (in experiment [1]; on GST tagged Mcl-1 protein) were 7.70 and 5.00, respectively.
For the molecule `CC1(C)CCC(c2ccc(Cl)cc2)=C(CN2CCN(c3ccc4c(NS(=O)(=O)c5ccc(N[C@H](CCN6CCOCC6)CSc6ccccc6)c(S(=O)(=O)C(F)(F)F)c5)ncnc4c3)CC2)C1` [Compound 8, N-(7-{4-[2-(4-Chloro-phenyl)-5,5-dimethyl-cyclohex-1-enylmethyl]-piperazin-1-yl}-quinazolin-4-yl)-4-((R)-3-morpholin-4-yl-1-phenylsulfanylmethylpropylamino)-3-trifluoromethanesulfonyl benzenesulfonamide], the values for the pIC50 (in experiment [1]; at GST tagged Mcl-1 protein) were 7.54 and 5.00, respectively.
`COc1cc([C@@H]2c3cc4c(cc3[C@@H](O[C@@H]3O[C@@H]5CO[C@@H](C)O[C@H]5[C@H](O)[C@H]3O)[C@H]3COC(=O)[C@H]23)OCO4)cc(OC)c1O` [etoposide]: the “Selectivity of killing of Noxa-expressing MEFs versus MEFs where both Bcl-xL and Mcl-1 are protective (% viability)” value in experiment [2] (FIG. 1A/1B) is given as “less selectively than compound 1”. The “Effect on Bax/Bak double knockout (BB DKO) MEFs” value in experiment [2] (FIG. 1B) is “resistance of BB DKO MEFs”.

(Values after patent publication US8168645B2, “Arylsulfonamide compounds” (Genentech, Inc., priority 2006, dated 2012).)
